# In patent US11286243B2 (GLOBAL BLOOD THERAPEUTICS, INC., priority 2018, dated 2022):
# Target: T1, human ferroportin (Homo sapiens, UniProt Q9NP59)
# T1 construct: luciferase reporter (probably NanoLuc: read with the Nano-Glo Luciferase Assay System); expressed in transfected cells; host or cells: CHO cells, stably transfected, doxycycline-inducible expression
# T1 sequence (Q9NP59 1-571): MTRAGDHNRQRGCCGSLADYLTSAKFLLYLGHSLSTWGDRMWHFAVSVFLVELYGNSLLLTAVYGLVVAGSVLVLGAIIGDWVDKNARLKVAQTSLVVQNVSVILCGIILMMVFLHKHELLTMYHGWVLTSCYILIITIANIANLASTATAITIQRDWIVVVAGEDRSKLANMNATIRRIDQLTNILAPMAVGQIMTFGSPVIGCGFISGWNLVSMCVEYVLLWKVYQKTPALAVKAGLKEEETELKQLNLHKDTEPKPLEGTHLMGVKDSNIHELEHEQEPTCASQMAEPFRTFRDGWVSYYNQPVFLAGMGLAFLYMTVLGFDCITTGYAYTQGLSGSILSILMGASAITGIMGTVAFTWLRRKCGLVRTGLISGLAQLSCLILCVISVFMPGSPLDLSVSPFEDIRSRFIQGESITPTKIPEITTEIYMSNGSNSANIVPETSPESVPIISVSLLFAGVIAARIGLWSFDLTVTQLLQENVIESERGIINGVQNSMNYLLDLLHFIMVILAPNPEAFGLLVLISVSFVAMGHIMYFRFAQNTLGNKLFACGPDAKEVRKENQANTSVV
# Assay: In-vitro ferroportin internalization assay (luciferase reporter)
# Format: cell-based
# Conditions: average pEC50; stably-transfected CHO cell line expressing human ferroportin tagged to a luciferase reporter; 6 h incubation with test compounds
# How it was run: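 CHO cells stably expressing human ferroportin fused to a luciferase reporter were plated 24 h with ferric ammonium citrate, then induced with doxycycline for 24 h. Compounds in DMSO were incubated with cells for 6 h before luciferase readout by Nano-Glo. Results are reported as average pEC50.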
smiles,measurement,value
"Oc1nc(NCc2ncccc2F)c2nc([C@H](F)CNCCc3nc4ccccc4[nH]3)sc2n1 [Compound 83, 2-[(1R)-2-{[2-(1H-1,3-benzodiazol-2-yl)ethyl]amino}-1-fluoroethyl]-7-{[(3-fluoropyridin-2-yl)methyl]amino}-[1,3]thiazolo[5,4-d]pyrimidin-5-ol]",pEC50,7.1
